From patent publication US4690935A, “Inhibition of tumor growth and metastasis with calcium channel blocker compounds” (Wayne State University, priority 1983, dated 1987)
“Also recorded” adds a separate entry of the source. Read-outs that look alike come from different tables or passages of the source.

What was measured:
[1] = test system: Walker 256 L-Pam tumor cell; test: Walker 256 L-Pam tumor cell attachment to virally transformed endothelial cell monolayer (RCE-T1); format: cell-based, rat; conditions: 0.04 mg/ml; for effect on tumor cell adhesion to endothelial cell monolayer (in words): thirty minutes preincubation; for inhibition at 40 µg/mL: Rattus norvegicus, Walker 256, 1 h, 1 h plating, x ± SEM, n = 4, read-out: % Inhibition vs Control (attachment to endothelial cells)
Experimental: Walker ^256 L-Pam tumor cells were plated at approximately 5×10^5 cells/flask. The cells were labelled with ^125 I-UDR (iodinated uridine deoxyribonucleic acid) at 0.5 microcuries/ml media (5.0 microcurie/flask). Cells were incubated for approximately 24 hours and the cell count/flask was determined to be 8.14×10^5 cell/flask. The cells from each flask were counted (gamma counter) and found to have an average of 0.24 cpm/cell.
Platelet enhanced tumor cell attachment to plastic was tested using four conditions: tumor cell alone (Condition A), tumor cells plus washed platelets (Condition B), tumor cells plus platelet poor plasma (Condition C) and tumor cells, washed platelets and platelet poor plasma (Condition D).
Walker 256 L-Pam tumor cells obtained from culture are radiolabeled with ^125 I-UDR as described previously. The radiolabeled cells are removed from T-75 flasks with trypsin (2 milliliters of 0.25% trypsin and 0.01% EDTA) in MEM. After two minutes, the flasks are washed 3X with trypsin "quench," 10% fetal calf serum in MEM, to quench and remove the trypsin in order to prevent cell lysis. The tumor cells are removed from the flasks in MEM and adjusted to 2.5×10^5 cells /milliliter. One hundred microliters of the tumor cell suspension (2.5×10^4 cells) were plated in […] tissue culture wells (Costar) and overlaid with 250 microliters of Wash Solution #2 (see Platelet Prep). The cells were incubated at room temperature (approximately 22° C.) for 5 minutes. Following this incubation 10 microliters of 7.35 mg/ml CaCl2 were added to the culture wells, 10 microliters of platelet poor plasma (diluted 1:32 with platelet Wash Solution #2) were added to culture wells for Conditions C and D and 250 microliters of washed platelets (3×10^8 /ml final concentration) were added to culture wells for Conditions B and D. Where appropriate, Wash Solution #2 was added to wells (Conditions A and C) so that all wells had the same final volume of solutions. The wells were incubated for one hour at 37° C. After the one hour incubation, the media containing any unattached tumor cells were removed by aspiration and then the wells were washed 2X with 1 ml of sodium phosphate buffer (PBS). The adhering cells were removed by trypsinization (as described above) and counts per wells determined using a gamma counter. Results were determined as total cpm plated per well.
Platelet enhanced tumor cell attachment to a virally transformed endothelial cell monolayer (on plastic wells) was also tested. The experimental protocal utilized was similar to that described above. The only significant difference is that in the above assay the floor of each incubation well is the plastic material of the plate, and in these assays, that plastic floor is covered with a confluent monolayer of virally transformed rat cerebral microvascular endothelial cells. The cells were prepared and plated as described in detail in Laboratory Investigations, Vol 46, No. 6, […], 1982 (Diglio, C. A., Grammas, P., Giacomelli, F., and Wiener, J., Lab. Investigations Vol 46, No. 6, p554-563, 1982) and in J. Cell. Biol (Manuscript accepted 3/83) (Diglio, C., Wolfe, D. E., and Meyers, P. J. Cell. Biol. manuscript in press, 1983). Briefly, rat endothelial cells were dispersed from […] microvasculature by collagenase treatment. Migrating cells and cell proliferation are seen. Isolated cells are allowed to proliferate in culture until the expected "cobblestone" appearance characteristic of normal endothelial cells is obtained.
Cultured (subconfluent) normal endothelial cells are infected with Schmidt-Ruppin Rous Sarcoma virus-strain D (SR-RSV-D). A single transformed focus was isolated and recultured. The resulting transformed endothelial cell line was designated RCE-T1 (also known as SR-D1).
In the actual assay, the protocol for tumor cell adhesion to plastic or transformed endothelial cell are similar. […]

Platelet [2] = test: Tumor cell (B16a) induced platelet aggregation (TCIPA); format: cell-based, human; conditions: for effect on tumor cell induced platelet aggregation (in words): 400 micrograms/ml to 0.4 micrograms/ml
Experimental: (§1) Blood (45 ml) was drawn from the […] vein of healthy, fasted, aspirin free (at least two weeks) human volunteers into a plastic syringe containing 5 ml of 4.8% dextrose with 50 U/ml heparin buffered by 25 mM HEPES, pH 7.5. An 18 gauge needle was used to prevent hemolysis. The heparinized blood was gently mixed by inverting the syringe five times and then the blood was transfused into two 40 ml plastic centrifuge tubes and centrifuged for 10 min at 163×g. The resulting platelet rich plasma (PRP; the supernatant fraction) was decanted using an adjustable SMI pipette set at 6 ml. Platelet poor plasma (PPP) was prepared by centrifugation of PRP for 10 min at 1086×g. Platelet poor plasma was used to standardize the platelet concentration in PRP to 3×10^8 /ml. Platelet concentrations were determined using a Coulter Model ZBI cell counter.
(§2) Platelet aggregation was measured photometrically using a Sienco Model DP-247E dual channel aggregometer and recorded on a Sienco Model B-5000 dual channel recorder. Aliquots of PRP (250 microliters at 3×10^8 platelets/ml) were transferred into aggregometry cuvettes and stirred at a constant speed of 800 RPM at 37° C. Platelet aggregation studies were designed and run as individually controlled samples. BAY e 9736 was dissolved in either PEG-400 or […] (DMSO).
(§3) BAY e 9736 in PEG-400 alone was aliquoted into the cuvettes prior to the addition of the PRP. Immediately after the addition of the PRP, the cuvettes were placed into the aggregometer. After two minutes (to allow for the stabilization of the platelet preparation and mixing of the BAY e 9736), ADP or tumor cells were added in 20 microliter aliquots to induce platelet aggregation.
A 20 milligram sample of BAY e 9736 was dissolved in 1 ml of polyethylene glycol (PEG-400) and serially diluted with PEG-400 to 2, 0.2 and 0.02 mg/ml concentrations using PEG-400. Tumor cell induced platelet aggregation (TCIPA) studies were performed as described previously. The effect of BAY e 9736 on TCIPA was determined by the mixing of 2 or 5 microliter aliquots of 20, 2, 0.2 or 0.02 mg/ml BAY e 9736 and the platelet rich plasma (PRP) for approximately 3 minutes prior to the addition of tumor cells.

Platelet [3] = test: ADP induced platelet aggregation; format: cell-based, human; conditions: for effect on ADP induced platelet aggregation (in words): higher concentrations
Experimental: as §1, §2, §3
Adenosine diphosphate (ADP) was prepared as a 1 mM solution (in distilled water). A 25 microliter aliquot was added to control and BAY e 9736 treated cuvettes containing PRP. The ADP concentration used induces rapid, monophasic platelet aggregation.

COCCOC(=O)C1=C(C)NC(C)=C(C(=O)OC(C)C)C1c1cccc([N+](=O)[O-])c1 (stereo not drawn) [BAY e 9736, 1,4-dihydro-2,6-dimethyl-4-(3' nitrophenyl)-pyridine-3-(beta-methyoxyethylester)-5-(isopropyl ester)]
effect on tumor cell adhesion to endothelial cell monolayer (in words) [1]: decreased the percent of cells adhering to the plastic wells as well as the endothelial cell monolayer; also recorded: significant in all groups tested
effect on tumor cell adhesion to endothelial cell monolayer (in words) ([1]; listed as nimodipine): decreases or inhibits the adhesion of tumor cells to plastic incubation wells and to virally transformed endothelial cell monolayers
inhibition at 40 µg/mL ([1]; A = tumor cells alone): 50%
inhibition at 40 µg/mL ([1]; B = tumor cells + platelets): 65 ± 7.8%
inhibition at 40 µg/mL ([1]; C = tumor cells + PPP): 60 ± 5%
inhibition at 40 µg/mL ([1]; D = tumor cells + PPP + platelets): 53 ± 5.5%
% Inhibition of Tumor Cell Induced Platelet Aggregation (Platelet [2]; 0.00015 mg/ml final): No effect
% Inhibition of Tumor Cell Induced Platelet Aggregation (Platelet [2]; 0.004 mg/ml final (second line so printed, below 0.0015)): No effect
effect on tumor cell induced platelet aggregation (in words) (Platelet [2]): does inhibit TCIPA
effect on tumor cell induced platelet aggregation (in words) (Platelet [2]; listed as nimodipine): greatly inhibit platelet aggregation induced by tumor cells
inhibition at 1.5 µg/mL (Platelet [2]; Homo sapiens, Platelet, 0.0015 mg/ml final, x ± SEM, n = 3): 12 ± 4.1%
inhibition at 4 µg/mL (Platelet [2]; Homo sapiens, Platelet, 0.004 mg/ml final, x ± SEM, n = 3): 19 ± 5.9%
inhibition at 15 µg/mL (Platelet [2]; Homo sapiens, Platelet, 0.015 mg/ml final, x ± SEM, n = 3): 32 ± 3.5%
inhibition at 40 µg/mL (Platelet [2]; Homo sapiens, Platelet, 0.04 mg/ml final, x ± SEM, n = 3): 55 ± 7.7%
inhibition at 150 µg/mL (Platelet [2]; Homo sapiens, Platelet, 0.15 mg/ml final, x ± SEM, n = 3): 67 ± 8.5%
inhibition at 400 µg/mL (Platelet [2]; Homo sapiens, Platelet, 0.4 mg/ml final, x ± SEM, n = 3): 85 ± 9.6%
effect on platelet aggregation, dissolved in PEG-400 vs DMSO (Platelet [2]; preliminary aggregometry studies): no statistically significant differences
% Inhibition of ADP Induced Platelet Aggregation (Platelet [3]; 0.0015 mg/ml final, 0.1 mM ADP): No effect
% Inhibition of ADP Induced Platelet Aggregation (Platelet [3]; 0.004 mg/ml final (second line so printed, below 0.0015), 0.1 mM ADP): No effect
% Inhibition of ADP Induced Platelet Aggregation (Platelet [3]; 0.004 mg/ml final, 0.1 mM ADP): No effect
inhibition at 15 µg/mL (Platelet [3]; Homo sapiens, Platelet, 0.015 mg/ml final, 0.1 mM ADP, printed "No effect to 12%"): ≤ 12%
inhibition at 40 µg/mL (Platelet [3]; Homo sapiens, Platelet, 0.04 mg/ml final, 0.1 mM ADP, x ± SEM, n = 3): 31 ± 6.2%
inhibition at 150 µg/mL (Platelet [3]; Homo sapiens, Platelet, 0.15 mg/ml final, 0.1 mM ADP, x ± SEM, n = 3): 58 ± 11%
inhibition at 400 µg/mL (Platelet [3]; Homo sapiens, Platelet, 0.4 mg/ml final, 0.1 mM ADP, x ± SEM, n = 3): 69 ± 7.5%
effect on ADP induced platelet aggregation (in words) (Platelet [3]): able to significantly inhibit this aggregation
effect on ADP induced platelet aggregation (in words) (Platelet [3]; listed as nimodipine): greatly inhibit platelet aggregation induced by tumor cells and ADP
